Results: US4515941A, “23-Demycinosyldesmycosin derivatives” (Toyo Jozo Kabushiki Kaisha, priority 1982, dated 1985)
Values after ≈ are worked out from the molar mass of the structure shown. Where two headings read alike, the source gives them in different places.

Tests used:
Format in all cases: cell-based
[1] = test system: Staphylococcus aureus ATCC 6538P; assay: MIC, Staphylococcus aureus ATCC 6538P; settings: ATCC6538P
[2] = test system: Staphylococcus aureus MS353; assay: MIC, Staphylococcus aureus MS353
[3] = test system: Staphylococcus aureus MS353 C36; assay: MIC, Staphylococcus aureus MS353 C36; settings: MS353C36
[4] = test system: Staphylococcus epidermis sp-al-1; assay: MIC, Staphylococcus epidermis sp-al-1
[5] = test system: Streptococcus pyogenes N.Y.5; assay: MIC, Streptococcus pyogenes N.Y.5
[6] = test system: Streptococcus faecalis 1501; assay: MIC, Streptococcus faecalis 1501
[7] = test system: Streptococcus agalactiae 1020; assay: MIC, Streptococcus agalactiae 1020
Sarcina lutea ATCC 9341 = assay: MIC, Sarcina lutea ATCC 9341; settings: Micrococcus luteus, ATCC9341
[8] = test system: Micrococcus flavus ATCC 10240; assay: MIC, Micrococcus flavus ATCC 10240; settings: ATCC10240
[9] = test system: Corynebacterium diptheriae P.Y.8; assay: MIC, Corynebacterium diptheriae P.Y.8
[10] = test system: Bacillus subtilis ATC 6633; assay: MIC, Bacillus subtilis ATC 6633
[11] = test system: Klebsiella pneumoniae ATCC 10031; assay: MIC, Klebsiella pneumoniae ATCC 10031
Salmonella typhosa H901 = assay: MIC, Salmonella typhosa H901; settings: Salmonella enterica, TYPHOSA
[12] = test system: Salmonella enteritidis Gaertner; assay: MIC, Salmonella enteritidis Gaertner; settings: Salmonella enterica
[13] = test system: Shigella flexineri type 3a; assay: MIC, Shigella flexineri type 3a; settings: TYPE3A
Shigella sonnei E33 = assay: MIC, Shigella sonnei E33
Proteus vulgaris OX19 = assay: MIC, Proteus vulgaris OX19
Serratia marcescens = assay: MIC, Serratia marcescens
[14] = test system: Pseudomonas aeruginosa IAM 1095; assay: MIC, Pseudomonas aeruginosa IAM 1095; settings: IAM1095
[15] = test system: Staphylococcus aureus MS353 A0; assay: MIC, Staphylococcus aureus MS353 A0 (macrolide resistant); settings: MS353A0, macrolide resistant bacteria A group
Excerpt: (§1) *macrolide resistant bacteria A group (clinical isolates of erythromycin,
(§2) oleandomycin and 16membered macrolide antibiotic resistant strains.)

[16] = test system: Staphylococcus aureus 0127; assay: MIC, Staphylococcus aureus 0127 (macrolide resistant); settings: Staphylococcus aureus 0127; macrolide resistant bacteria A group; read-out: MIC
Excerpt: as §1, §2

[17] = test system: Streptococcus pyogenes 1022; assay: MIC, Streptococcus pyogenes 1022 (macrolide resistant); settings: macrolide resistant bacteria A group
Excerpt: as §1, §2

[18] = test system: Escherichia coli NIHJ-JC2; assay: MIC, Escherichia coli NIHJ-JC2; settings: NIHJJC2
[19] = test system: Staphylococcus aureus 0119; assay: MIC, Staphylococcus aureus 0119 (macrolide resistant); settings: macrolide resistant bacteria A group
Excerpt: as §1, §2

Escherichia coli B = assay: MIC, Escherichia coli B
[20] = Staphylococcus aureus MS353, read-out: MIC
[21] = SPAL1, Staphylococcus epidermis sp-al-1, read-out: MIC
[22] = Streptococcus pyogenes 1022, read-out: MIC
[23] = Enterococcus faecalis, Streptococcus faecalis 1501, read-out: MIC
[24] = Streptococcus agalactiae 1020, read-out: MIC
[25] = Corynebacterium diptheriae P.Y.8, read-out: MIC
[26] = ATC6633, Bacillus subtilis ATC 6633, read-out: MIC
[27] = ATCC10031, Klebsiella pneumoniae ATCC 10031, read-out: MIC
[28] = Proteus vulgaris OX19, read-out: MIC
[29] = Pseudomonas aeruginosa IAM 1095, read-out: MIC
[30] = Micrococcus flavus ATCC 10240, read-out: MIC
[31] = Salmonella enteritidis Gaertner, read-out: MIC

| Compound | MIC [3] [µg/mL] | MIC (Sarcina lutea ATCC 9341) [µg/mL] | MIC (Salmonella typhosa H901) [µg/mL] | MIC [13] [µg/mL] | MIC (Shigella sonnei E33) [µg/mL] | MIC ([1]; read-out: MIC) [µg/mL] | MIC [2, 20] [µg/mL] | MIC [15] [µg/mL] | MIC [16] [µg/mL] | MIC [4, 21] [µg/mL] | MIC ([5]; read-out: MIC) [µg/mL] | MIC [17, 22] [µg/mL] | MIC [6, 23] [µg/mL] | MIC [7, 24] [µg/mL] | MIC [9, 25] [µg/mL] | MIC [10, 26] [µg/mL] | MIC [18] [µg/mL] | MIC [11, 27] [µg/mL] | MIC (Proteus vulgaris OX19; [28]) [µg/mL] | MIC [14, 29] [µg/mL] | other results |
| --- | --- | --- | --- | --- | --- | --- | --- | --- | --- | --- | --- | --- | --- | --- | --- | --- | --- | --- | --- | --- | --- |
| CC[C@H]1OC(=O)C[C@@H](O)[C@H](C)[C@@H](O[C@@H]2O[C@H](C)[C@@H](O[C@H]3C[C@@](C)(O)[C@@H](O)[C@H](C)O3)[C@H](N(C)C)[C@H]2O)[C@@H](CC=O)C[C@@H](C)C(=O)/C=C/C(C)=C/[C@@H]1CO[C@@H]1O[C@H](C)[C@@H](O)[C@@H](OC)[C@H]1OC [TS, tylosin, reference compound] | 0.4 (≈ 0.437 µM) | ≤ 0.05 | > 100 | 50 (≈ 54.6 µM) | > 100 | – | – | – | – | – | – | – | – | – | – | – | – | – | – | – | MIC ([1]; Staphylococcus aureus): 0.8 µg/mL (≈ 0.873 µM); MIC ([2]; Staphylococcus aureus, MS353, Staphylococcus aureus MS353): 0.8 µg/mL (≈ 0.873 µM); MIC ([4]; Staphylococcus, SPAL1, Staphylococcus epidermis sp-al-1): 0.4 µg/mL (≈ 0.437 µM); MIC [5]: 0.1 µg/mL (≈ 0.109 µM); MIC ([6]; Enterococcus faecalis, 1501, Streptococcus faecalis 1501): 0.8 µg/mL (≈ 0.873 µM); MIC ([6]; Streptococcus faecalis 1501): 1.6 µg/mL (≈ 1.75 µM); MIC ([7]; Streptococcus agalactiae 1020): 0.4 µg/mL (≈ 0.437 µM); MIC ([7]; Streptococcus agalactiae, 1020, Streptococcus agalactiae 1020): 0.2 µg/mL (≈ 0.218 µM); MIC ([8]; Micrococcus flavus): ≤ 0.05 µg/mL; MIC ([9]; Corynebacterium, P.Y.8): ≤ 0.05 µg/mL; MIC ([10]; Bacillus subtilis, ATC6633, Bacillus subtilis ATC 6633): 0.2 µg/mL (≈ 0.218 µM); MIC ([11]; Klebsiella pneumoniae ATCC 10031): 100 µg/mL (≈ 109 µM); MIC ([11]; Klebsiella pneumoniae, ATCC10031, Klebsiella pneumoniae ATCC 10031): 50 µg/mL (≈ 54.6 µM); MIC ([12]; ENTERITIDIS): > 100 µg/mL; MIC (Proteus vulgaris OX19; Proteus vulgaris, OX19, Proteus vulgaris OX19): > 100 µg/mL; MIC (Serratia marcescens): > 100 µg/mL; MIC ([14]; Pseudomonas aeruginosa): > 100 µg/mL |
| CCC1OC(=O)CC(O)C(C)C(OC2OC(C)C(O)C(N(C)C)C2O)C(CC=O)CC(C)C(=O)C=CC(C)=CC1COC(c1ccccc1)(c1ccccc1)c1ccccc1 (centres unmarked) [OC(C6 H5)3, 23-O-triphenylmethyl-23-demycinosyldesmycosin] | – | 0.4 (≈ 0.476 µM) | > 100 | – | > 100 | 1.6 (≈ 1.9 µM) | 1.6 (≈ 1.9 µM) | 6.3 (≈ 7.5 µM) | 25 (≈ 29.8 µM) | 1.6 (≈ 1.9 µM) | 0.8 (≈ 0.952 µM) | 3.1 (≈ 3.69 µM) | 1.6 (≈ 1.9 µM) | 1.6 (≈ 1.9 µM) | 0.1 (≈ 0.119 µM) | 3.1 (≈ 3.69 µM) | > 100 | > 100 | > 100 | > 100 | – |
| CCC1OC(=O)CC(O)C(C)C(OC2OC(C)C(O)C(N(C)C)C2O)C(CC=O)CC(C)C(=O)C=CC(C)=CC1COc1ccc(C)cc1 (centres unmarked) | 0.2 (≈ 0.291 µM) | ≤ 0.05 | > 100 | 50 (≈ 72.7 µM) | > 100 | 0.2 (≈ 0.291 µM) | 0.2 (≈ 0.291 µM) | 50 (≈ 72.7 µM) | 50 (≈ 72.7 µM) | ≤ 0.05 | ≤ 0.05 | 25 (≈ 36.3 µM) | 0.1 (≈ 0.145 µM) | ≤ 0.05 | ≤ 0.05 | 0.1 (≈ 0.145 µM) | 100 (≈ 145 µM) | 6.3 (≈ 9.16 µM) | 25 (≈ 36.3 µM) | > 100 | MIC [19]: 50 µg/mL (≈ 72.7 µM); MIC [8, 30]: ≤ 0.05 µg/mL; MIC (Escherichia coli B): 50 µg/mL (≈ 72.7 µM); MIC [12, 31]: > 100 µg/mL; MIC (Serratia marcescens; read-out: MIC): 100 µg/mL (≈ 145 µM) |
| CCC1OC(=O)CC(O)C(C)C(OC2OC(C)C(O)C(N(C)C)C2O)C(CC=O)CC(C)C(=O)C=CC(C)=CC1COc1ccc(Br)cc1 (centres unmarked) | 0.2 (≈ 0.266 µM) | ≤ 0.05 | > 100 | 12.5 (≈ 16.6 µM) | 100 (≈ 133 µM) | 0.1 (≈ 0.133 µM) | 0.2 (≈ 0.266 µM) | 25 (≈ 33.2 µM) | 25 (≈ 33.2 µM) | 0.1 (≈ 0.133 µM) | ≤ 0.05 | – | 0.2 (≈ 0.266 µM) | ≤ 0.05 | ≤ 0.05 | 0.2 (≈ 0.266 µM) | 100 (≈ 133 µM) | 3.1 (≈ 4.12 µM) | 25 (≈ 33.2 µM) | > 100 | MIC [19]: 25 µg/mL (≈ 33.2 µM); MIC ([17]; Streptococcus pyogenes, 1022, Streptococcus pyogenes 1022): 12.5 µg/mL (≈ 16.6 µM); MIC [8, 30]: ≤ 0.05 µg/mL; MIC (Escherichia coli B): 25 µg/mL (≈ 33.2 µM); MIC [12, 31]: > 100 µg/mL; MIC (Serratia marcescens; read-out: MIC): 50 µg/mL (≈ 66.4 µM) |
| CCC1OC(=O)CC(O)C(C)C(OC2OC(C)C(O)C(N(C)C)C2O)C(CC=O)CC(C)C(=O)C=CC(C)=CC1CSc1ccccc1 (centres unmarked) [SC6 H5] | – | ≤ 0.05 | 50 (≈ 72.5 µM) | – | 50 (≈ 72.5 µM) | 0.1 (≈ 0.145 µM) | 0.1 (≈ 0.145 µM) | 25 (≈ 36.2 µM) | – | ≤ 0.05 | ≤ 0.05 | 25 (≈ 36.2 µM) | ≤ 0.05 | ≤ 0.05 | ≤ 0.05 | 0.1 (≈ 0.145 µM) | 50 (≈ 72.5 µM) | 1.6 (≈ 2.32 µM) | 12.5 (≈ 18.1 µM) | 100 (≈ 145 µM) | – |
